# Test system: MMP-9
# Assay: Secretion of MMP-9 by BT001 glioma cells, gelatin zymogram
# Format: cell-based
# Conditions: 48 hours
# Method: Assays were performed to determine the effect of Cpd. 5 (synthesis described in Example 1) on the secretion of MMP-9 by the BT001 glioma cell line. The BT001 cell line was established as follows from cells obtained after surgery. The excised tissue was treated briefly with a protease cocktail, and the resulting cell suspension was cultured in IMDM supplemented with 10% FBS. Expanded cells were then frozen for future use.
# A fresh 50 mM stock solution of Cpd. 5 was prepared in ethanol and warmed to 37° C. Aliquots of the stock solution were removed and diluted in IMDM supplemented with 0.1% FBS, insulin-transferrin-sodium selenite (ITSS) solution, and penicillin/streptomycin solution to prepare experimental culture media (final concentrations of Cpd. 5 ranged from 10-100 μM). Ethanol in the culture medium was used as diluent control.
# The BT001 cells were cultured in 25 cm^2 flasks in IMDM containing 10% FBS at 37° C. and 5% CO2. When cells reach 70-80% confluence, they were washed two times with IMDM that had been warmed to 37° C. in a water bath. The experimental culture media containing Cpd. 5 were then added to the flasks (4.5 ml per flask), and the flasks were incubated at 37° C. and 5% CO2 for 48 hours. The conditioned media were then removed from the cells, and cellular debris was removed by centrifugation at 2000 rpm for 10 minutes. The supernatants were then transferred to sterile tubes and stored at −20° C.
# Gelatin zymograms were used to evaluate MMP release and activity in the samples. Precast 10% polyacrylamide gels impregnated with gelatin were obtained from Invitrogen, Carlsbad, Calif. Ten μL, of each of the thawed conditioned media were mixed with an equal volume of SDS-PAGE loading dye without reducing agent (obtained from Invitrogen, Carlsbad, Calif.), applied to the gels and separated at 150 volts for 1 hour. The gels were then processed following the manufacturer's recommended protocol (includes renaturing the gels for one hour and incubating overnight at 37° C. with gentle shaking for protease digestion of gelatin). Visualization of MMP activity was done by staining the gel with Invitrogen Simple Safe blue commassie solution and photographing the gel on a Kodak Image station. The intensity of the bands in the photos was determined using bundled Kodak software. Percent decrease was determined with the following formula: (Intensity of diluent control)−(Intensity of treatment)/(Intensity of diluent control)×100. The data presented in Table 4 are the means of three or four replicate experiments.
smiles,measurement,setting,value
"COC(=O)C(c1ccc(-c2ccccc2)cc1)C1NC(=O)CNC1=O (stereo not drawn) [Cpd. 5, biphenyl-4-yl-(3,6-dioxo-piperazin-2-yl)-acetic acid methyl ester]",MEAN % DECREASE ACTIVE MMP-9,"BT001, 10 μM",49.55 ± 21.49%
same,MEAN % DECREASE PRO-MMP-9,"BT001, 10 μM",6.89 ± 20.51%
same,MEAN % DECREASE ACTIVE MMP-9,"BT001, 50 μM",40.51 ± 9.73%
same,MEAN % DECREASE PRO-MMP-9,"BT001, 50 μM",36.13 ± 20.53%
same,MEAN % DECREASE ACTIVE MMP-9,"BT001, 100 μM",71.08 ± 17.47%
same,MEAN % DECREASE PRO-MMP-9,"BT001, 100 μM",45.55 ± 20.50%

# From patent publication US8871772B2, “Therapeutic methods and compounds” (Ampio Pharmaceuticals, Inc., priority 2008, dated 2014)
